Legend:
5HT1a = 5HT1a (Homo sapiens, UniProt P08908); assay: Binding to cloned human 5HT1a receptor
[1] = system: NPY-induced feeding behavior in satiated rats; assay: NPY-induced food intake in satiated rats; format: in vivo, rat; details: compound 30 mg/kg i.p., then 300 pmole NPY i.c.v., 4 hours after NPY, in g (unit assumed)
Method: For these determinations food intake maybe measured in normal satiated rats after intracerebroventricular application (i.c.v.) of NPY in the presence or absence of the test compound. Male Sprague Dawley rats ciba-Geigy AG, Sisseln, Switzerland weighing between 180 g and 220 g are used for all experiments. The rats are individually housed in stainless steel cages and maintained on an 11:13 h light-dark cycle (lights off at 18:00 h) at a controlled temperature of 21-23° C. at all times. Water and food (NAFAG lab chow pellets, NAFAG, Gossau, Switzerland) are available ad libidum.
Rats under pentobarbital anesthesia are stereotaxically implanted with a stainless steel guide cannula targeted at the right lateral ventricle. Stereotaxic coordinates, with the incisor bar set −2.0 mm below interaural line, are: −0.8 mm anterior and +1.3 mm lateral to bregma. The guide cannula is placed on the dura. […]
Food intake may be measured by placing preweighed pellets into the cages at the time of NPY injection. […] The food intake of animals treated with test compound may be calculated as a percentage of the food intake of control animals, i.e., animals treated with vehicle. Alternatively, food intake for a group of animals subjected to the same experimental condition may be expressed as the mean ±S.E.M. Statistical analysis is performed by analysis of variance using the Student-Newman-Keuls test. […]

[2] = biological target: T1, human histamine H2 receptor (Homo sapiens, UniProt P25021); assay: Binding to human histamine H2 receptor ([3H]tiotidine); details: cloned human receptor
T1 construct: expressed in transfected cells; host or cells: COS-7 cells, transient (DEAE-dextran), plasmid pcEXV-H2 (ATCC 75345)
T1 sequence (P25021 whole entry): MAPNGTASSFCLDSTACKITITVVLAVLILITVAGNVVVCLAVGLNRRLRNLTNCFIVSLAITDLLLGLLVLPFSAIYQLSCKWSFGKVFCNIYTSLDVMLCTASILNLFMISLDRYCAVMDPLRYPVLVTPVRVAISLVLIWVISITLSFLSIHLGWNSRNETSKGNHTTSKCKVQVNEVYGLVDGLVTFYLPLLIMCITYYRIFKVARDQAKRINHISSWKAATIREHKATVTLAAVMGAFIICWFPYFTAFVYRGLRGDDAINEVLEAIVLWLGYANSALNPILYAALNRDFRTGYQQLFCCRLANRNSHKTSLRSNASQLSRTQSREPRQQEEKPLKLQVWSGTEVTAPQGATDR

5HT1a, sequence (P08908 whole entry): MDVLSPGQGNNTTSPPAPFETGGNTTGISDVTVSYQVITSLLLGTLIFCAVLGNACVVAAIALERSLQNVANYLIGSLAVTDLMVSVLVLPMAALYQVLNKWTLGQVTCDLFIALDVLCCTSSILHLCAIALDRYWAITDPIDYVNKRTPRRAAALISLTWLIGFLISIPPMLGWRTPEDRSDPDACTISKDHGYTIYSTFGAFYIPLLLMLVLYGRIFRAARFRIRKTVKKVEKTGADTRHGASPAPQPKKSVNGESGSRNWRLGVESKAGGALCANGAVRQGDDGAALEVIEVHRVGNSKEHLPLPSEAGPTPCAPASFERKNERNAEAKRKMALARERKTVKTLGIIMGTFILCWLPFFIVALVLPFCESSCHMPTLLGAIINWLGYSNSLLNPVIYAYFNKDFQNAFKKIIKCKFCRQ

| Receptor (pKi) 5HT1a (5HT1a) | Receptor (pKi) H2 [2] | SMILES | NPY-induced cumulative food intake (NPY + compound), mean ± S.E.M. [1] |
| --- | --- | --- | --- |
| 5.54 | – | Cl.O=S(=O)(NCC1CCC(CNCC2CCc3ccccc3C2)CC1)c1cccc2ccccc12 (stereo not drawn) [Example 32] | 1.5 ± 0.6 |
| – | 5.85 | Cl.O=[N+]([O-])c1ccccc1S(=O)(=O)NCC1CCC(CNCC2CCc3ccccc3C2)CC1 (stereo not drawn) [Example 36] | – |
